According to publication PMC10245560 (bioRxiv, 2023):

Tests used:
B. subtilis = details: ref Fage et al., 2020; cited from earlier work
B. subtilis 168 = test: Bacterial cell wall integrity; assay type: cell-based; details: phase-contrast microscopy
[1] = HS-AFM of fibrils on supported lipid bilayers; assay type: physicochemical; details: supported lipid bilayer with lipid II, errors are standard deviation, SD

height of fibrils above the membrane surface [1] [nm] | Compound | activity against B. subtilis (B. subtilis) | cell-shape deformations / blebbing phenotype (B. subtilis 168)
 | C=C(CC/C=C\C=C\C[C@H](C)CC(=O)C[C@@H](O)CNC(=O)[C@H](C)[C@@H](C)OC(N)=O)C[C@@H](C)C/C(C)=C/C(=O)O [kalimantacin] | not active | 
 | CN[C@H](CC(C)C)C(=O)N[C@H]1C(=O)N[C@@H](CC(N)=O)C(=O)N[C@H]2C(=O)N[C@H]3C(=O)N[C@H](C(=O)N[C@H](C(=O)O)c4cc(O)cc(O)c4-c4cc3ccc4O)[C@H](O)c3ccc(c(Cl)c3)Oc3cc2cc(c3O[C@@H]2O[C@H](CO)[C@@H](O)[C@H](O)[C@H]2O[C@H]2C[C@](C)(N)[C@H](O)[C@H](C)O2)Oc2ccc(cc2Cl)[C@H]1O [vancomycin] |  | similarly observed
 | hypeptin |  | similarly observed
0.8 ± 0.1 | teixobactin |  | similarly observed
